Measured values taken from patent US20080096244A1, “D-AMINOACYLASE” (DAIICHI PURE CHEMICALS CO., LTD., priority 2002, published 2008).
“Also recorded” adds a separate entry of the source.

Tests used:
[1] = tested on: D-aminoacylase from the Defluvibacter sp. A131-3 strain; assay: Effects of metal ions on D-aminoacylase activity (D-valine produced, HPLC); type: biochemical; settings: for Relative activity (%): metal ion 1.0 mmol/L, 0.5 mol/L N-acetyl-D-valine, enzyme 500 U, 40° C., 1 day, no metal addition = 100%; for Effects of metal ions on activity: each at 1 mmol/L
[2] = tested on: D-aminoacylase from the Defluvibacter sp. A131-3 strain; assay: Substrate specificity, acylase activity measurement using D-/L-amino acid oxidase chromogenic reagent; type: biochemical; settings: for Substrate specificity: whether the enzyme acts on the substrate: D- or L-amino acid oxidase detection; for Relative activity (% in relation to Met): activity of N-acetyl-D-methionine = 100; for Relative activity (% in relation to Met) / Relative activity (% in relation to Val): 100 mmol/L substrate solution, pH 8, 37° C., 30 minutes; for Relative activity (% in relation to Val): activity of N-acetyl-D-valine = 100
Text: (4) Substrate specificity: Substrate specificity of the acylase of the present invention was confirmed by using the following N-acetyl-D-amino acids and N-acetyl-L-amino acids as the substrate and combining therewith the D-amino acid oxidase or the L-amino acid oxidase. The acylase of the present invention acts on the following N-acetyl-D-amino acids but not on the N-acetyl-L-amino acids.
In the measurement of the reactivity with the L-amino acids, an oxidase for L-amino acids is used instead of the D-amino acid oxidase in the activity measurement as will be described below.
4. Substrate specificity was determined by an activity measurement method using the chromogenic reagents for the D- and L-amino acid oxidases as described above.

[3] = tested on: D-aminoacylase from the Defluvibacter sp. A131-3 strain; assay: Effects of inhibitor on D-aminoacylase activity (D-valine produced, HPLC); type: biochemical; settings: for Effects of inhibitors on activity: each at 5 mmol/L; for Relative activity (%): inhibitor 5 mmol/L, 0.5 mol/L N-acetyl-D-valine, enzyme 500 U, 40° C., 1 day, no addition of inhibitor = 100%
Experimental: The detection was conducted at 230 nm. The column was analyzed at a temperature of 30° C. The enzymatic activity was evaluated in terms of the ratio between the area of the acetyl compound and the free compound, and the resolution rate was expressed as a […]

[4] = tested on: D-aminoacylase from Defluvibacter sp. A131-3 strain; assay: Production of D-valine by resolution of N-acetyl-D,L-valine (HPLC); type: biochemical; settings: 15% aqueous N-acetyl-D,L-valine, enzyme 200 U/mL, 40° C.
Experimental: It was then confirmed that the strains that had been selected by the chromogenic process show rapid reduction of the N-acetyl-D-valine and increase of the D-valine in an amount corresponding to the reduction of the N-acetyl-D-valine.
By using 15% aqueous solution of N-acetyl-D,L-valine as a substrate, D-aminoacylase from Defluvibacter sp. A131-3 strain was added with in an amount of 200 U per 1 ml of the aqueous solution of the substrate, and the reaction was allowed to proceed at 40° C. for 3 days. The rate of D-valine production by resolution from the N-acetyl-D,L-valine was measured by the HPLC method described in Example 1 (2).

[5] = Optimal temperature of the enzyme; type: biochemical, Defluvibacter sp. A131-3; settings: pH 8, 30 minutes
[6] = 30° C., 1 day
[7] = Isoelectric point by two-dimensional electrophoresis for denatured system; type: physicochemical, Defluvibacter sp. A131-3; settings: calculated from mobility of 2D-protein isoelectric point markers
Experimental: (3) Isoelectric point: Isoelectric point is measured on the basis of two-dimensional electrophoresis process by two-dimensional electrophoresis for denatured system (using IPG tube gel “Daiichi” 4-10 and PAG Large “Daiichi” 2D-10/20 manufactured by Daiichi Pure Chemicals Co., Ltd.). The pI value of 5.3 is calculated from mobility of 2D-protein isoelectric point markers (2D-protein isoelectric point markers “Daiichi” manufactured by Daiichi Pure Chemicals Co., Ltd.).
3. Protein isoelectric point was measured on the bases of two-dimensional electrophoresis process by two-dimensional electrophoresis for denatured system (using IPG tube gel “Daiichi” 4-10 and PAG Large “Daiichi” 2D-10/20 manufactured by Daiichi Pure Chemicals Co., Ltd.). The pI value of the enzyme of the present invention calculated from the mobility of the pI values 5.1, 5.2, 5.3, 5.4, 5.7, 6.0, 6.2, 6.4, 6.5, 6.7, 6.8, 7.0, and 7.1 of the 2D-protein isoelectric point markers (2D-protein isoelectric point markers “Daiichi” manufactured by Daiichi Pure Chemicals Co., Ltd.) was 5.3.

## [Cl-].[K+] [Potassium chloride, potassium chloride]
[1]
  Relative activity (%): 92%

## [Na+].[Na+].[O]=[Mo](=[O])([O-])[O-] [Sodium molybdate, sodium molybdate]
[1]
  Relative activity (%): 105%

## CC(=O)N[C@@H](Cc1c[nH]c2ccccc12)C(=O)O [N-Ac-L-Trp, N-acetyl-L-tryptophan]
[2]
  Substrate specificity: whether the enzyme acts on the substrate: does not act on
  Relative activity (% in relation to Met): 0%
  Relative activity (% in relation to Val): 0%

## O.O.O.O.O.O.[Cl][Ni][Cl] [Nickel chloride, nickel chloride hexahydrate]
[1]
  Effects of metal ions on activity: inhibited
  Relative activity (%): 20%

## CC(=O)N[C@H](CC(C)C)C(=O)O [N-Ac-D-Leu, N-acetyl-D-leucine]
[2]
  Substrate specificity: whether the enzyme acts on the substrate: to some extent; also recorded: acting on
  Relative activity (% in relation to Met): 555%
  Relative activity (% in relation to Val): 73%

## CC(=O)N[C@@H](Cc1ccc(O)cc1)C(=O)O [N-Ac-L-Tyr, N-acetyl-L-tyrosine]
[2]
  Substrate specificity: whether the enzyme acts on the substrate: does not act on
  Relative activity (% in relation to Met): 0%
  Relative activity (% in relation to Val): 0%

## iron (III) chloride hexahydrate
[1]
  Relative activity (%): 88%

## OCCS [2-mercaptoethanol]
[3]
  Effects of inhibitors on activity: inhibited

## c1cnc2c(c1)ccc1cccnc12 [O-phenanthroline, o-phenanthroline]
[3]
  Effects of inhibitors on activity: inhibited
  Relative activity (%): 53%
[3]; listed as o-phenanthroline
  Relative activity (%): less than 60%

## CC(=O)N[C@H](Cc1c[nH]c2ccccc12)C(=O)O [N-Ac-D-Trp, N-acetyl-D-tryptophan]
[2]
  Substrate specificity: whether the enzyme acts on the substrate: to some extent
  Relative activity (% in relation to Met): 1.1%
  Relative activity (% in relation to Val): 0.2%
[2]; listed as N-acetyl-D-triptophan
  Substrate specificity: whether the enzyme acts on the substrate: acting on

## O.O.O.O.O.O.[Cl-].[Cl-].[Co+2] [Cobalt (II) chloride, cobalt (II) chloride hexahydrate]
[1]
  Effects of metal ions on activity: inhibited
  Relative activity (%): 27%

## CC(=O)N[C@@H](CCC(=O)O)C(=O)O [N-Ac-L-Glu, N-acetyl-L-glutamic acid]
[2]
  Relative activity (% in relation to Met): 0%
  Relative activity (% in relation to Val): 0%

## NC(=O)CI [Iodacetamide, iodacetamide]
[3]
  Relative activity (%): 107%

## [Cl-].[Cl-].[Zn+2] [Zinc chloride, zinc chloride]
[1]
  Effects of metal ions on activity: inhibited
  Relative activity (%): 31%

## CC(=O)N[C@H](CCC(=O)O)C(=O)O [N-Ac-D-Glu, N-acetyl-D-glutamic acid]
[2]
  Relative activity (% in relation to Met): 0%
  Relative activity (% in relation to Val): 0%

## [Cl-].[Na+] [Sodium chloride, sodium chloride]
[1]
  Relative activity (%): 99%

## CC(=O)N[C@@H](CC(C)C)C(=O)O [N-Ac-L-Leu, N-acetyl-L-leucine]
[2]
  Substrate specificity: whether the enzyme acts on the substrate: does not act on
  Relative activity (% in relation to Met): 0%
  Relative activity (% in relation to Val): 0%

## CSCC[C@H](NC(C)=O)C(=O)O [N-Ac-L-Met, N-acetyl-L-methionine]
[2]
  Substrate specificity: whether the enzyme acts on the substrate: does not act on
  Relative activity (% in relation to Met): 0%
  Relative activity (% in relation to Val): 0%

## CC(=O)N[C@H](Cc1ccc(O)cc1)C(=O)O [N-Ac-D-Tyr, N-acetyl-D-tyrosine]
[2]
  Substrate specificity: whether the enzyme acts on the substrate: to some extent; also recorded: acting on
  Relative activity (% in relation to Met): 8.4%
  Relative activity (% in relation to Val): 1.1%

## O[C@H](CS)[C@H](O)CS (racemic) [Dithiothreitol, dithiothreitol]
[3]
  Effects of inhibitors on activity: inhibited
  Relative activity (%): 38%

## N[C@@H](CS)C(=O)O [L-cysteine]
[3]
  Effects of inhibitors on activity: inhibited

## CC(=O)N[C@@H](C(=O)O)C(C)C [N-Ac-D-Val, N-acetyl-D-valine]
[2]
  Substrate specificity: whether the enzyme acts on the substrate: acted most effectively; also recorded: acting on
  Relative activity (% in relation to Met): 762%
  Relative activity (% in relation to Val): 100%

## CC(=O)N[C@H](Cc1ccccc1)C(=O)O [N-Ac-D-Phe, N-acetyl-D-phenylalanine]
[2]
  Substrate specificity: whether the enzyme acts on the substrate: to some extent; also recorded: acting on
  Relative activity (% in relation to Met): 37%
  Relative activity (% in relation to Val): 4.8%

## CCN1C(=O)C=CC1=O [N-ethylmaleimide]
[3]
  Relative activity (%): 100%

## O=C(O)CN(CCN(CC(=O)O)CC(=O)O)CC(=O)O [Ethylenediamine tetraacetic acid, ethylenediamine tetraacetic acid]
[3]
  Relative activity (%): 112%

## CC(=O)N[C@@H](Cc1ccccc1)C(=O)O [N-Ac-L-Phe, N-acetyl-L-phenylalanine]
[2]
  Substrate specificity: whether the enzyme acts on the substrate: does not act on
  Relative activity (% in relation to Met): 0%
  Relative activity (% in relation to Val): 0%

## O.O.O.O.[Cl][Mn][Cl] [Manganese chloride, manganese (II) chloride tetrahydrate]
[1]
  Effects of metal ions on activity: inhibited
  Relative activity (%): 48%

## CC(=O)N[C@H](C(=O)O)C(C)C [N-Ac-L-Val, N-acetyl-L-valine]
[4]
  Decomposition of the L-form by the enzyme: not decomposed at all
[2]
  Substrate specificity: whether the enzyme acts on the substrate: does not act on
  Relative activity (% in relation to Met): 0%
  Relative activity (% in relation to Val): 0%

## CSCC[C@@H](NC(C)=O)C(=O)O [N-Ac-D-Met, N-acetyl-D-methionine]
[2]
  Substrate specificity: whether the enzyme acts on the substrate: to some extent; also recorded: acting on
  Relative activity (% in relation to Met): 100%
  Relative activity (% in relation to Val): 13%

B1: the enzyme of the present invention: D-aminoacylase from the Defluvibacter sp. A131-3 strain obtained in Example 3; amino acid sequence of SEQ ID NO. 2 (protein)
chain: MAKSFDLVIRNGRVVDPETGHDAIADVAVSGGQIVAVGPSLGAGKREIDATGLVVSPGFIDLHAHGQSIPADRMQAFDGVTTALELEVGSLPVARWYEQQQAGGRVLNYGTAAAWIFARKAVMIGMELDGRLAPIEMMGAGSDDMRWSVDAATAPQTDDIVRLTRQALEEGALGIGIPHGYAAGAGVKEMTRICELAAEFDRPTYTHIPYMSNIDPRSSVEAYVQLIGLAGATGAHMHICHLNSTSLRDVEDAARLIAKAQAQGLPITTEAYPYGTGSTVMSARFFIDSDFAERTGTGYDAIQVVSSGKRFENRDELVAARAETPEALVLWHYLDTDNPHDQRLLDVSVMYPGGAIASDAVPWSNPDGTLYTGEEWPLPADKTSHPRSAGTYTRFLAQWVREREAVPLVEAIAKCALIPAQIVERCSDVFRRKGRLQPGCDADIVIFDLESVQDRSTFEDMHLAADGMVHVLVNGEAVIANGELVRDARSGRAIRSTPR
modifications: Defluvibacter sp.A131-3
[5]
  Optimal temperature: 37 °C
[6]
  Residual activity at pH 6 or pH 11: not 0%
  pH at which the enzyme is most stable: ~9 pH
[7]
  Isoelectric point (pI value): 5.3
